Measurements: DBAASP
In brackets after ≈: the same amount, converted by molar mass. Several values for one entry are separate records, joined by “and”; a condition that tells them apart may be missing. Equal entries are not always repeated. One block for each compound: values may come before it.

Experiments:
Test in all cases: ≥ marks a high value that may be exact or a test limit, other limits are often not marked, values filed in µg/mL are converted to µM
[1] = tested on: Klebsiella pneumoniae CIP 8291
[2] = tested on: Lactococcus lactis subsp. cremoris I116
Listeria ivanovii LMA 94 = tested on: Listeria ivanovii LMA 94
[3] = tested on: Staphylococcus aureus CIP 677
[4] = tested on: Acinetobacter calcoaceticus
Citrobacter freundii = tested on: Citrobacter freundii
Enterobacter cloacae = tested on: Enterobacter cloacae
[5] = tested on: Enterococcus faecalis ATCC 29212
Enterococcus faecium = tested on: Enterococcus faecium
Escherichia coli = tested on: Escherichia coli
Klebsiella aerogenes = tested on: Klebsiella aerogenes
Klebsiella oxytoca = tested on: Klebsiella oxytoca
[6] = tested on: Klebsiella pneumoniae ATCC 700603
Proteus mirabilis = tested on: Proteus mirabilis
Proteus vulgaris = tested on: Proteus vulgaris
[7] = tested on: Pseudomonas aeruginosa ATCC 27853
Pseudomonas aeruginosa = tested on: Pseudomonas aeruginosa
Serratia marcescens = tested on: Serratia marcescens
Staphylococcus aureus = tested on: Staphylococcus aureus
[8] = tested on: Staphylococcus epidermidis ATCC 14990
[9] = tested on: Staphylococcus epidermidis
[10] = tested on: Staphylococcus haemolyticus
[11] = tested on: Streptococcus agalactiae ATCC 27956
[12] = tested on: Streptococcus oralis ATCC 35037
[13] = tested on: Streptococcus pneumoniae ATCC 49619
Streptococcus pneumoniae = tested on: Streptococcus pneumoniae
[14] = tested on: Escherichia coli PCM 2057
[15] = tested on: Staphylococcus aureus PCM 1944
[16] = tested on: Escherichia coli O157:H7 ATCC 35150
[17] = tested on: Salmonella enterica serovar Typhimurium
Theileria equi = tested on: Theileria equi
Aerococcus viridans = tested on: Aerococcus viridans
Bacillus megaterium = tested on: Bacillus megaterium
Enterococcus faecalis = tested on: Enterococcus faecalis
Escherichia coli 1106 = tested on: Escherichia coli 1106
Escherichia coli D22 = tested on: Escherichia coli D22
Escherichia coli D31 = tested on: Escherichia coli D31
Micrococcus luteus = tested on: Micrococcus luteus
[18] = tested on: Pseudoalteromonas carrageenovora ATCC 43555
Pseudomonas alginovora = tested on: Pseudomonas alginovora
Salmonella typhimurium = tested on: Salmonella typhimurium
[19] = tested on: Bacillus subtilis KCCM 11495
[20] = tested on: Escherichia coli KCCM 11569

MIC [1]: ≥ 64 µM
MIC [2]: 4 µM (≈ 10.8 µg/mL)
MIC (Listeria ivanovii LMA 94): 8 µM (≈ 21.7 µg/mL)
MIC [3]: 8 µM (≈ 21.7 µg/mL)
SMILES: CC[C@H](C)[C@H](NC(=O)[C@H](CCCCN)NC(=O)[C@H](CC(C)C)NC(=O)[C@H](C)NC(=O)[C@H](CO)NC(=O)CNC(=O)[C@H](CC(C)C)NC(=O)[C@@H](N)Cc1c[nH]c2ccccc12)C(=O)NCC(=O)N[C@@H](C)C(=O)N[C@@H](CCCCN)C(=O)N[C@@H](CC(C)C)C(=O)N[C@@H](CC(C)C)C(=O)N1CCC[C@H]1C(=O)N[C@@H](CO)C(=O)N[C@H](C(=O)N[C@H](C(=O)NCC(=O)N[C@@H](CC(C)C)C(=O)N[C@@H](Cc1ccccc1)C(=O)N[C@@H](CCCCN)C(=O)N[C@@H](CCCCN)C(=O)N[C@@H](CCCCN)C(=O)N[C@@H](CCCCN)C(=O)N[C@@H](CCC(N)=O)C(=O)O)C(C)C)C(C)C [WLGSALKIGAKLLPSVVGLFKKKKQ]

MIC [16]: 2 µM (≈ 4.61 µg/mL)
MIC (Pseudomonas aeruginosa): 2 µM (≈ 4.61 µg/mL)
MIC [17]: 10 µM (≈ 23.1 µg/mL)
MIC (Staphylococcus aureus): 2 µM (≈ 4.61 µg/mL)
MIC (Theileria equi): 5 µM (≈ 11.5 µg/mL)
SMILES: CC[C@H](C)[C@H](NC(=O)CNC(=O)[C@H](C)NC(=O)[C@H](CS)NC(=O)[C@H](Cc1ccc(O)cc1)NC(=O)CNC(=O)CNC(=O)[C@H](CCCN=C(N)N)NC(=O)[C@H](CCCN=C(N)N)NC(=O)CNC(=O)[C@@H](NC(=O)[C@@H](N)CO)[C@@H](C)CC)C(=O)N[C@H](C(=O)N[C@@H](CCCCN)C(=O)N[C@@H](CCC(N)=O)C(=O)N[C@H](C(=O)N[C@@H](CS)C(=O)N[C@H](C(=O)N[C@@H](CS)C(=O)N[C@@H](Cc1ccc(O)cc1)C(=O)N[C@@H](CCCN=C(N)N)C(=O)O)[C@@H](C)O)[C@@H](C)O)[C@@H](C)CC [SIGRRGGYCAGIIKQTCTCYR]

The next lines start with the compound.

SMILES: NC(=O)CC[C@H](N)C(=O)N[C@@H](Cc1c[nH]c2ccccc12)C(=O)NCC(=O)N[C@@H](CCCN=C(N)N)C(=O)N[C@@H](CCCN=C(N)N)C(=O)N[C@H]1CSSC[C@@H]2NC(=O)[C@H](Cc3ccc(O)cc3)NC(=O)[C@H](CCCN=C(N)N)NC(=O)[C@H](CCCN=C(N)N)NC(=O)CNC(=O)[C@@H]3CCCN3C(=O)CNC(=O)[C@H](Cc3c[nH]c4ccccc34)NC(=O)CNC(=O)[C@H](CSSC[C@@H](C(=O)O)NC(=O)[C@H](Cc3c[nH]c4ccccc34)NC(=O)[C@H](CCCN=C(N)N)NC(=O)[C@H](CCCN=C(N)N)NC2=O)NC1=O [QWGRRCCGWGPGRRYCRRWC]
MIC [4]: ≥ 50.3 µM
MIC (Citrobacter freundii): ≥ 50.3 µM
MIC (Enterobacter cloacae): 2.22 µM (≈ 5.65 µg/mL)
MIC [5]: 15.7 µM and 31.5 µM
MIC (Enterococcus faecium): 1.57 µM (≈ 3.99 µg/mL)
MIC (Escherichia coli): 2.22 µM (≈ 5.65 µg/mL)
MIC (Klebsiella aerogenes): 8.9 µM (≈ 22.6 µg/mL)
MIC (Klebsiella oxytoca): 17.8 µM (≈ 45.2 µg/mL)
MIC [6]: 47.2 µM and 62.9 µM
MIC (Proteus mirabilis): 25.2 µM (≈ 63.9 µg/mL)
MIC (Proteus vulgaris): 17.8 µM (≈ 45.2 µg/mL)
MIC [7]: 62.9 µM (≈ 160 µg/mL)
MIC (Pseudomonas aeruginosa): > 50.3 µM
MIC (Serratia marcescens): 4.45 µM (≈ 11.3 µg/mL)
MIC (Staphylococcus aureus): 3.15 µM (≈ 7.99 µg/mL)
MIC [8]: 31.5 µM and ≥ 62.9 µM
MIC [9]: 8.9 µM (≈ 22.6 µg/mL)
MIC [10]: 4.45 µM (≈ 11.3 µg/mL)
MIC [11]: ≥ 62.9 µM
MIC [12]: 31.5 µM and ≥ 78.6 µM
MIC [13]: 7.86 µM and 15.7 µM
MIC (Streptococcus pneumoniae): 8.9 µM (≈ 22.6 µg/mL)

SMILES: CC[C@H](C)[C@H](N)C(=O)NCC(=O)N[C@H]1CSSC[C@@H](C(=O)N[C@@H](Cc2ccccc2)C(=O)N[C@H](C(=O)N[C@@H](CCCCN)C(N)=O)C(C)C)NC(=O)[C@@H]2CCCN2C(=O)[C@H](CCCN=C(N)N)NC(=O)[C@@H]2CCCN2C(=O)[C@@H]2CCCN2C(=O)[C@H]([C@@H](C)CC)NC(=O)[C@H](CO)NC(=O)[C@H](CCCCN)NC(=O)[C@H]([C@@H](C)O)NC(=O)[C@H](Cc2c[nH]c3ccccc23)NC1=O [IGCWTKSIPPRPCFVK]
MIC [14]: ≥ 546 µM
MIC [15]: ≥ 546 µM

SMILES: C[C@@H]1NC(=O)[C@H](Cc2c[nH]c3ccccc23)NC(=O)CNC(=O)[C@H](CCCCN)NC(=O)[C@@H]2CSSC[C@@H](C(=O)O)NC(=O)[C@H](CCCN=C(N)N)NC(=O)[C@H](Cc3ccccc3)NC(=O)[C@@H]3CSSC[C@H](NC(=O)[C@H](CCCCN)NC(=O)[C@H](C)NC(=O)[C@H](CCCCN)NC(=O)[C@@H]4CSSC[C@H](NC(=O)[C@H](Cc5ccc(O)cc5)NC(=O)[C@H](CSSC[C@H](NC(=O)CN)C(=O)N[C@@H](C)C(=O)N[C@@H](CO)C(=O)N[C@@H](CCCN=C(N)N)C(=O)N4)NC(=O)[C@H](CCCN=C(N)N)NC(=O)CNC(=O)[C@H](CCCN=C(N)N)NC(=O)[C@H](Cc4ccccc4)NC(=O)[C@H](CO)NC(=O)[C@H](C)NC(=O)[C@H](CO)NC1=O)C(=O)N[C@@H](CCCCN)C(=O)N3)C(=O)N[C@@H](C)C(=O)NCC(=O)N[C@@H](CCCN=C(N)N)C(=O)N[C@@H](CCCN=C(N)N)C(=O)N2 [GCASRCKAKCAGRRCKGWASASFRGRCYCKCFRC]
MIC (Aerococcus viridans): 0.849 µM (≈ 3.2 µg/mL)
MIC (Bacillus megaterium): 0.849 µM (≈ 3.2 µg/mL)
MIC (Enterococcus faecalis): 3.54 µM (≈ 13.3 µg/mL)
MIC (Escherichia coli 1106): 10 µM (≈ 37.7 µg/mL)
MIC (Escherichia coli D22): 7.07 µM (≈ 26.7 µg/mL)
MIC (Escherichia coli D31): 3.54 µM (≈ 13.3 µg/mL)
MIC (Micrococcus luteus): 0.849 µM (≈ 3.2 µg/mL)
MIC [18]: 3.54 µM (≈ 13.3 µg/mL)
MIC (Pseudomonas alginovora): 3.54 µM (≈ 13.3 µg/mL)
MIC (Salmonella typhimurium): 10 µM (≈ 37.7 µg/mL)
MIC (Staphylococcus aureus): 7.07 µM (≈ 26.7 µg/mL)

SMILES: CC(C)C[C@H](NC(=O)[C@@H](NC(=O)CNC(=O)[C@H](CCCCN)NC(=O)[C@H](C)NC(=O)[C@H](CS)NC(=O)[C@H](CC(N)=O)NC(=O)[C@H](CC(C)C)NC(=O)CNC(=O)[C@H](Cc1cnc[nH]1)NC(=O)[C@H](Cc1cnc[nH]1)NC(=O)[C@H](CC(C)C)NC(=O)[C@H](CC(C)C)NC(=O)[C@H](C)NC(=O)[C@H](CC(N)=O)NC(=O)[C@H](CC(C)C)NC(=O)[C@@H](N)Cc1c[nH]c2ccccc12)C(C)C)C(N)=O [WLNALLHHGLNCAKGVL]
MIC [19]: 0.538 µM (≈ 1 µg/mL)
MIC [20]: 1.52 µM (≈ 2.83 µg/mL)
